Among the data in PubChem BioAssay (NCI) are GI50 and TGI values, retold here.

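Method: 48-hour compound exposure of cells in 96-well plates, five concentrations, linear interpolation of endpoints. GI50: concentration for 50% inhibition of growth. The concentration for full growth arrest is given as TGI.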

Assay in all cases: NCI-60 cell line screen, 48 h
The test system of experiment [1] is MOLT-4 leukemia.
The subject of experiment [2] is SF-295 CNS.
Experiment [3] has as its system M14 melanoma.
Experiment [4] concerns NCI/ADR-RES ovarian.
Experiment [5] has as its system SN12C renal.
For experiment [6], the system named is HOP-92 NSCLC.
In experiment [7] the test system is UACC-62 melanoma.
The subject of experiment [8] is UO-31 renal.
Experiment [9] relates to ACHN renal.
Experiment [10] deals with DU-145 prostate.

As for `COc1cc(N(CCC#N)CCC#N)ccc1/C(N=Nc1ccc(C(=O)O)cc1)=N/NC(=O)c1cc(Br)ccc1O`, the GI50 in experiment [1] was 67.5 µg/mL; in experiment [2], 96.4 µg/mL; in experiment [3], 72 µg/mL; in experiment [4] it was 49.4 µg/mL; in [5] it was 102 µg/mL; in [6], > 150 µg/mL. Moreover, the GI50 in experiment [7] was 149 µg/mL; in experiment [8], 107 µg/mL; in experiment [9] it was 108 µg/mL; in experiment [10], > 150 µg/mL. Moreover, the TGI in [1], in experiment [2], in experiment [3], in experiment [4], in experiment [5] and in experiment [6] was > 150 µg/mL each time. Moreover, the TGI in [7], in [8], in experiment [9] and in [10] was > 150 µg/mL throughout.
`CC1(C)CC[C@]2(C(=O)O)CC[C@]3(C)C(=CC[C@@H]4[C@@]5(C)C/C(=C/c6ccco6)C(=O)C(C)(C)[C@@H]5CC[C@]43C)[C@@H]2C1`: the GI50 in experiment [1] was 1.04 µM; in experiment [2] it was 3.22 µM; in experiment [3], 4.51 µM; in [4] it was 3.64 µM; in [5], 3.37 µM; in experiment [6] it was 2.69 µM. For the same compound, the GI50 in experiment [7] was 3.06 µM; in experiment [8], 2.39 µM; in experiment [9], 2.89 µM; in experiment [10], 4.02 µM. Moreover, the TGI in experiment [1] is > 100 µM; in [2], 18.1 µM; in [3] it was 21.6 µM; in experiment [4], 44.5 µM; in [5], 19.2 µM; in experiment [6], 12.2 µM. The TGI stood at 12.8 µM in experiment [7], 11.6 µM in experiment [8], 11.1 µM in experiment [9] and 15.1 µM in [10].
For `O=C1CCS/C(=N/S(=O)(=O)c2ccc(N3N=C4c5ccccc5CC4C3c3cccs3)cc2)N1Cc1ccccc1` (stereo not given), the GI50 in experiment [1] is 47 µM; in [2] it was 15.8 µM; in experiment [3], 15.3 µM; in experiment [4], 20.8 µM; in experiment [5], 18.5 µM; in experiment [6] it was 35.9 µM. The GI50 in experiment [7] was 16.7 µM; in experiment [8] it was 28.3 µM; in [9] it was 14.9 µM; in experiment [10], 21 µM. Further, the TGI in [1] is > 100 µM; in experiment [2] it was 37.5 µM; in experiment [3] it was 30.1 µM; in [4], 40.1 µM; in experiment [5], 38.3 µM; in experiment [6] it was 83.7 µM. For the same compound, the TGI was 32.3 µM in experiment [7], > 100 µM in experiment [8], 32.9 µM in [9] and 52.6 µM in experiment [10].
In the case of `CC1=C2[C@@H](CC1)[C@]1(C)O[C@@](C3CC3)(C[C@H]1OC(=O)CO)[C@H]2OC(=O)/C=C/c1ccccc1`, the GI50 in experiment [1] was 15.1 µM; in experiment [2], 16.1 µM; in experiment [3] it was 16.4 µM; in [4] it was 0.103 µM; in experiment [5], 0.736 µM; in experiment [6] it was 13.4 µM. Moreover, the GI50 in [7] is 14.3 µM; in experiment [8], 0.636 µM; in experiment [9], 0.0339 µM; in experiment [10], 16.9 µM. Moreover, the TGI came out at 36.9 µM in [1]; 30.1 µM in experiment [2]; 32.3 µM in experiment [3]; 14.1 µM in experiment [4]; 25.4 µM in [5]; 26.7 µM in experiment [6]. In addition, the TGI in [7] was 29.4 µM; in experiment [8], 20.8 µM; in [9], 13.2 µM; in [10], 30.9 µM.
Regarding `COC(=O)[C@]1(C)CCC[C@]2(C)[C@@H]1CCC13C[C@@H](C=CO1)[C@@H](C)CC32O` (stereo not given in full), the GI50 in [1] is 24.5 µM; in experiment [2] it was 27.5 µM; in experiment [3], 50.3 µM; in [4], > 100 µM; in experiment [5], > 100 µM; in experiment [6], 22 µM. The GI50 was > 100 µM in [7], > 100 µM in [8], > 100 µM in experiment [9] and 19.9 µM in experiment [10]. For the same compound, the TGI was > 100 µM in experiment [1]; 88.7 µM in [2]; > 100 µM in experiment [3]; > 100 µM in experiment [4]; > 100 µM in experiment [5]; > 100 µM in [6]. In addition, the TGI was > 100 µM in [7], > 100 µM in experiment [8], > 100 µM in experiment [9] and 43.5 µM in experiment [10].
`CCOc1ccc(Nc2nc(-c3c(C)nc4ncccn34)cs2)cc1`: the GI50 in [1] is 0.0539 µM; in [2] it was < 0.01 µM; in experiment [3] it was 0.017 µM; in experiment [4], < 0.01 µM; in experiment [5], 0.0769 µM; in experiment [6], 0.0362 µM. In addition, the GI50 in experiment [7] is < 0.01 µM; in [8], 0.0537 µM; in experiment [9] it was 0.0767 µM; in experiment [10], 0.0431 µM. The TGI came out at 20.4 µM in experiment [1]; 15.3 µM in experiment [2]; 13.6 µM in experiment [3]; 29.1 µM in [4]; 28.2 µM in experiment [5]; 13.4 µM in experiment [6]. Further, the TGI in [7] came out at 12.8 µM; in experiment [8] it was 18.6 µM; in [9] it was 19.5 µM; in [10] it was 19.2 µM.
For `O=C(C(=O)c1cc(Br)ccc1O)c1cc(Br)ccc1O`, the GI50 in [1] was 3.28 µM; in experiment [2], 1.98 µM; in experiment [3], 4.96 µM; in experiment [4], 3.36 µM; in experiment [5], 3.47 µM; in experiment [6], 1.48 µM. Further, the GI50 is 3.94 µM in experiment [7], 1.97 µM in [8], 3.75 µM in experiment [9] and 3.66 µM in [10]. The TGI in experiment [1] is 19.9 µM; in [2], 6.27 µM; in experiment [3], 20.1 µM; in experiment [4], > 100 µM; in experiment [5], 90.9 µM; in experiment [6] it was 5.58 µM. Besides, the TGI in experiment [7] amounted to 17 µM; in experiment [8], 6.51 µM; in experiment [9], 50 µM; in experiment [10], 18.5 µM.
